Tested on: retina
Test: Light-induced retinal apoptosis in rats under continuous light exposure, TUNEL staining
Assay type: in vivo, SD strain rats
Settings: SD rats exposed to 1000 lux for 4 days; 10 μg/kg subcutaneously three times a day for 4 days; TUNEL-positive cells to total cells per 200 μm of retina; n=5; control 9.3 ± 0.8; p < 0.01
Protocol: (1) Breeding Condition and Administration Method SD strain rats (male, 11 weeks old) were continuously exposed to 1000 lux of light for 4 days. During the exposure of light, the test group animals were administered subcutaneously with a composition comprising 2-decarboxy-2-(2-carboxyethyl)-13,14-dihydro-15-keto-16,16-difluoro-20-ethyl-PGE, isopropyl ester of the following formula (IV) at the amount of 10 μg/kg of the active ingredient per single administration three times a day, for 4 days. The control group animals were administrated subcutaneously the same volume of the vehicle. [drawing 7] (2) Preparation and Staining After the continuous light exposure was finished, animals of test and control groups were sacrificed by excessive etherization and both eyes of each animal were removed. The eyes were immediately fixed in a 2% paraformaldehyde and 2.5% glutaraldehyde solution in phosphate buffer, dehydrated with alcohol, and then embedded in paraffin. Thus fixed eyes were sliced parallel to the meridian of eye to provide thin retinal preparations each comprises optic disc. The obtained slices were subjected to tunnel staining (Apoptag® Intergen Company). (3) Estimation Total cell number and the number of tunnel-positive cells per 200 μm of the retina were counted and the ratio of the TUNEL-positive cells to the total cell number was determined. […]

## CCCCCCC(F)(F)C(=O)CC[C@H]1[C@H](O)CC(=O)[C@@H]1CCCCCCCCC(=O)OC(C)C [formula (IV), 2-decarboxy-2-(2-carboxyethyl)-13,14-dihydro-15-keto-16,16-difluoro-20-ethyl-PGE, isopropyl ester]
  Ratio of the TUNEL-positive cells (%) (Ave ± SE): 1.5 ± 0.2 %
